Patent US10688032B2, “Emulsions having UV sunscreen factors and carnosines” (Symrise AG, priority 2015, dated 2020)
One block for each compound: values may come before it.

Legend:
human fibroblasts [1] = test: DNA content of human fibroblasts (Desaulniers method); format: cell-based; conditions: conc. 0.001 % w/v, compared to blank sample = 100
Description: G6PDH activity was determined in vitro on human fibroblasts by the enzymatic method of Okada, while the DNA content was determined by the Desaulniers method. The results of 3 series of measurements with triple determination are given in %-rel. compared to a blank sample.

pancreas elastase = pancreas elastase (Sus scrofa, UniProt P00772); test: Inhibition of elastase activity; format: biochemical; conditions: 0.3% by weight; 30 minutes at room temperature; relative to control = 0%
Chain of pancreas elastase (P00772 27-266): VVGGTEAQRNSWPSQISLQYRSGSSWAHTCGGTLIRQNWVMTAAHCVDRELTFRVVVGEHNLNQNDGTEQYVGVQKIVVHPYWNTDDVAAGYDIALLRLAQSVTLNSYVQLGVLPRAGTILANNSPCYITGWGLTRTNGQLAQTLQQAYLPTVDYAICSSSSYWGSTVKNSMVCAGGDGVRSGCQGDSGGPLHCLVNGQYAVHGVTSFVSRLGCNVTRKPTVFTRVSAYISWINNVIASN
Description: In order to determine the effectiveness of the plant extract in inhibiting the release of elastase, pancreas elastase (a serine protease) was studied and, as substrate, elastin was labeled with a chromogenic synthetic substrate. The system was incubated with the active ingredients for 30 minutes at room temperature and then, after centrifugation, the optical density of the dye at 410 nm was determined. The amount of extracts used was 0.3% by weight. The results are given relative to a control as standard (=0%); a1-antitrypsin was used as the standard.

[2] = tested on: human fibroblasts and human keratinocytes; test: Inhibition of apoptosis induced by a deficiency of growth factors (cell count, BrdU ELISA of cytoplasmic DNA fragments); format: cell-based; conditions: for Content of DNA fragments / Cell count: conc. 0.001 % w/v; for Content of DNA fragments: BrdU in cytoplasmic DNA fragments, based on a million cells, control = 100; for Cell count: medium without fetal calf serum, in comparison to the control = 100
Description: The ability of carnosines to prevent apoptosis induced by a deficiency of growth factors in human skin cells was studied. These tests were carried out in vitro on human fibroblasts and human keratinocytes. The human cells were cultivated in a nutrient medium (DMEM=Dulbecco minimum essential medium from Life Technologie Sarl) with 10% fetal calf serum (from Dutcher). Bromodeoxyuridine (BrdU) was added to the nutrient medium; it was incorporated into the DNA and later served for detection of the DNA fragments in the cytoplasm. After an incubation period of two days, the nutrient medium was replaced by nutrient medium (DMEM) without fetal calf serum. The active substance to be tested was added. For comparison, a cell sample without active substance to be tested was incubated.
After a further incubation period of one or two days at 37° C., the cells were recovered by trypsinization according to the method of Dunnebacke and Zitcer described in: Cell and tissue culture, Ed.: J. Paul, Churchill Livingstone, 1975, p. 226. After the trypsinization, the cells were centrifuged and counted. Then the content of BrdU in the DNA fragments from the cytoplasm was determined by means of the ELISA test (ELISA kit from Roche). The content of BrdU is a measure of the DNA fragments which have passed from the nucleus, the cell core, into the cytoplasm. The results were based on a million cells and given in percent in comparison to the control.

[3] = tested on: glucose-6-phosphate dehydrogenase (G6PDH); test: G6PDH activity on human fibroblasts (enzymatic method of Okada); format: cell-based; conditions: for G6PDH after 3 d / G6PDH after 6 d: conc. 0.001 % w/v, compared to blank sample = 100
Source text: The enzyme glucose-6-phosphate dehydrogenase (G6PDH) catalyzes the first step of the so-called “pentose pathway”, in which an important DNA component, namely deoxyribose, is formed. Glucose 6-phosphate (G6P) is thereby converted into 6-phosphogluconate (6PG) by means of G6PDH. At the same time, the coenzyme NADP required thereby is reduced to NADPH2, which in turn is able to catalyze a large number of other biological reactions such as, for example, the recycling of glutathione or lipid synthesis. Reduced glutathione protects many enzymes which have SH groups and cells against oxidative stress, such as, for example, the action of UV. The G6PDH content is thus an important parameter for cell protection and skin renewal. G6PDH activity was determined in vitro on human fibroblasts by the enzymatic method of Okada, while the DNA content was determined by the Desaulniers method. The results of 3 series of measurements with triple determination are given in %-rel. compared to a blank sample.

type I collagen = test: Inhibition of the glycation of collagen (Schiff's bases, fluorescence at 430 nm); format: biochemical; conditions: with glucose, 21 days at 45° C.; control with glucose 100, control without glucose 46
Description: The suspensions were then centrifuged and the content of Schiff's bases in the supernatant liquid was determined by fluorescence measurement at 430 nm. The results are again based on the control as standards (without extract and without glucose).

human fibroblasts [4] = test: Stimulation of the synthesis of dermal macromolecules (GAG) in collagen gel containing human fibroblasts; format: cell-based; conditions: 0.5% by weight FCS + 0.01% by weight substance; for Area 7 days / Area 14 days / Density 14 days: collagen gel; for Density 14 days: relative density 0=clear or white, 1=black; for GAG content 7 days / GAG content 14 days: relative value of the gray stage (0=white to 255=black), perifibroblast area
Description: The measuring method is based on staining macromolecules in a culture of human fibroblasts which, with type I collagen, forms a collagen gel or collagen lattice fibers. Certain regions of those fibers are quantified by means of staining reagents for the proportion of the mentioned macromolecules.
For that purpose, a suspension of human fibroblasts was mixed with a solution of type I collagen (1-2 mg/ml). This mixture was incubated in a defined nutrient medium (DMEM=Dulbecco minimum essential medium, Life Technologie Sarl) comprising 0.5 or 2% by weight fetal calf serum (FCS) for 14 days at 37° C. in a 5% CO2 atmosphere in Petri dishes (5 ml per dish) with the addition of different concentrations of the plant extracts to be tested.
The kinetics of the collagen gel […] was determined 2 to 3 times per week by measuring two perpendicular diameters on each collagen gel using a microscope with an image analysis system. The size of the area is shown in cm^2 in Table 8. After incubation for 14 days, the density of the collagen gel was determined by image analysis with a light source of visible light, by comparatively analyzing different gray stages. This is a relative determination of the density (0=clear or white and 1=black), which cannot be given a unit.
After an incubation period of 7 and 14 days, biopsies (tissue samples) were taken and histological sections of the collagen gel containing human fibroblasts were obtained. The synthesis of macromolecules was analyzed and quantified by the staining of glycosaminoglycan with PAS Alcian blue, for example from SIGMA, by the periodic acid-Schiff method (PAS) described in: Mowry R W, Anal. NY Adad. Sci. 106 Art 2, 402, 1963. The stimulation of the synthesis of macromolecules was evaluated in the immediate vicinity of fibroblasts. This zone is also referred to as the “perifibroblast area”.
The “perifibroblast” secretion, or the secretion of fibroblasts into the periphery, was quantified by an image analyzer by means of a microscope. Reactive structures in the “perifibroblast area” were detected, and the different gray stages were comparatively determined. The values of the gray stages were thereby subdivided from 0=white to 255=black. These parameters are directly proportional to the intensity of the synthesis of macromolecules and thus to the GAG content of the fibroblasts.
The results of the values of these parameters are shown in Table 3 below and are to be regarded directly as representative values for the synthesis activity of the fibroblasts. The content of GAGs is described as a relative value of the gray stage.

[5] = Membran & Cell Biol. 12(1), p. 89-99 (1998); cited from earlier work
[6] = Biochem. J. 264(3), p. 863-869 (1989); cited from earlier work

Elastase inhibition (pancreas elastase): 32%
G6PDH after 3 d [3]: 105 %-rel.
G6PDH after 6 d [3]: 109 %-rel.
SMILES: NCCC(=O)N[C@@H](Cc1cnc[nH]1)C(=O)O [L-Carnosine]
DNA after 3 d (human fibroblasts [1]): 111 %-rel.
DNA after 6 d (human fibroblasts [1]): 120 %-rel.
Content of DNA fragments [2]: 85%
Cell count [2]: 129%
Inhibition of the glycation of collagen (type I collagen): 68%
Area 7 days (human fibroblasts [4]): 10.1 cm2
Area 14 days (human fibroblasts [4]): 6.0 cm2
Density 14 days (human fibroblasts [4]): 0.25
GAG content 7 days (human fibroblasts [4]): 12.1
GAG content 14 days (human fibroblasts [4]): 15.1

G6PDH after 3 d [3]: 89 %-rel.
G6PDH after 6 d [3]: 85 %-rel.
SMILES: CCCCC(CC)COC(=O)C(C#N)=C(c1ccccc1)c1ccccc1 (centres unmarked) [Octocrinyl, reference compound]
DNA after 3 d (human fibroblasts [1]): 95 %-rel.
DNA after 6 d (human fibroblasts [1]): 90 %-rel.

Second part, the compound before the results:

SMILES: C[N+](C)(C)C[C@H](O)CC(=O)O.[Cl-] [Carnitine*HCl]
DNA after 3 d (human fibroblasts [1]): 106 %-rel.
DNA after 6 d (human fibroblasts [1]): 118 %-rel.
Elastase inhibition (pancreas elastase): 28%
Content of DNA fragments [2]: 88%
Cell count [2]: 118%
G6PDH after 3 d [3]: 104 %-rel.
G6PDH after 6 d [3]: 109 %-rel.
Inhibition of the glycation of collagen (type I collagen): 65%
Area 7 days (human fibroblasts [4]): 9.9 cm2
Area 14 days (human fibroblasts [4]): 5.8 cm2
Density 14 days (human fibroblasts [4]): 0.25
GAG content 7 days (human fibroblasts [4]): 11.8
GAG content 14 days (human fibroblasts [4]): 13.3

SMILES: CCCCCCOC(=O)c1ccccc1C(=O)c1ccc(N(CC)CC)cc1O [Uvinul A, 2-(4-diethylamino-2-hydroxybenzoyl)-benzoic acid hexyl ester, reference compound]
DNA after 3 d (human fibroblasts [1]): 97 %-rel.
DNA after 6 d (human fibroblasts [1]): 93 %-rel.
G6PDH after 3 d [3]: 88 %-rel.
G6PDH after 6 d [3]: 81 %-rel.

SMILES: NCCC(=O)N[C@@H](Cc1cnc[nH]1)C(=O)O [carnosine]
capture of alpha-beta-unsaturated aldehydes [5]: able to capture alpha-beta-unsaturated aldehydes
capture of ROS [6]: capable of capturing ROS
apoptosis and content of free DNA fragments in the cytoplasm (in words) ([2]; human cell cultures): counteracts apoptosis
G6PDH activity (in words) [3]: increases the activity of G6PDH production
